We go through 11 compounds from patent publication US11198713B2, “Agents modulating beta-catenin functions and methods thereof” (FOG PHARMACEUTICALS, INC., priority 2017, dated 2021).

A value given as a limit tells only on which side of the number the result lay.

The EC50 is the concentration needed to bring the measured effect to its halfway point.

The target in this assay is T1, full-length beta-catenin (Axin site) (Homo sapiens, UniProt P35222).
T1 construct: 15 nM full-length beta-catenin, 20 nM FITC labeled peptide in buffer
T1 sequence (P35222 1-781): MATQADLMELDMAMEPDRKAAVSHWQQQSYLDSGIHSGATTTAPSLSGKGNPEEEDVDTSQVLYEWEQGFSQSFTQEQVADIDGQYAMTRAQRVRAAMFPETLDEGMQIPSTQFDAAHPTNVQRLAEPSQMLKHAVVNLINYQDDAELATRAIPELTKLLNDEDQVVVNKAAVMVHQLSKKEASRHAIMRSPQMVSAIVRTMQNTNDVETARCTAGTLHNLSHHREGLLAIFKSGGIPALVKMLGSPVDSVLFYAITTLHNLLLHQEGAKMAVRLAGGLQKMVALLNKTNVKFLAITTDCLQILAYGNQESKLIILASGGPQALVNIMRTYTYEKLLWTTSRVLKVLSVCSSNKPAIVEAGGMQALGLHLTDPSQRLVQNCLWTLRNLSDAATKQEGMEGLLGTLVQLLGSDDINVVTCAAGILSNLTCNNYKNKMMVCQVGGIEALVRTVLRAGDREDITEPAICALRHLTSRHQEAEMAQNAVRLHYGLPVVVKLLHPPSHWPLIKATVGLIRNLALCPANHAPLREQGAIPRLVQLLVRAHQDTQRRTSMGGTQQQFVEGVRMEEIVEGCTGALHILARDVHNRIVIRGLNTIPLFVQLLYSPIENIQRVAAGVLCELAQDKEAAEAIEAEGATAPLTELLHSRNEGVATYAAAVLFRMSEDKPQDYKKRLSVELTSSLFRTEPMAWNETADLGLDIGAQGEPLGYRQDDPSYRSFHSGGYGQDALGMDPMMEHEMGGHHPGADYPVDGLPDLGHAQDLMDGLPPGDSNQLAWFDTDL
Put plainly: Competition fluorescence polarization assay (Axin site probe). The note with it: competition fluorescence polarization, Table 2; read-out: in vitro FP EC50. In kind it is binding. Summed up: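 Competition FP: 15 nM full-length β-catenin pre-incubated 5 min with 20 nM FITC-labelled stapled Axin-site peptide, then titrated peptide added (3-fold series from 5 μM) for 15 min in the dark. Buffer 50 mM Tris pH 8.0, 250 mM NaCl, 2% glycerol, 0.5 mM EDTA; duplicate reads.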
(In general: Polarisation of emitted light reports the rotation of a fluorescent probe.)
With `CC[C@H](C)[C@@H]1NC(=O)[C@]2(NC(=O)[C@H](CCC(N)=O)NC(=O)[C@@H]3CCCN3C(C)=O)CCN(C2)C(=O)OCC=CCCC[C@@](C)(C(=O)N[C@@H](Cc2c[nH]cn2)C(=O)N[C@H](C(=O)N[C@@H](CCCNC(=N)N)C(=O)N[C@@H](CCCNC(=N)N)C(=O)N[C@H](C(=O)N[C@@H](Cc2c[nH]c3ccccc23)C(=O)N[C@@H](CCCNC(=N)N)C(N)=O)C(C)C)C(C)C)NC(=O)[C@H](CC(=O)O)NC(=O)[C@H](CC(C)C)NC1=O` (single isomer, unassigned) [FP0751c, Ac-P-Q-MB-I-L-D-S5-H-V-R-R-V-W-R-NH2], the EC50 is 500 to 5000 nM.

As for `CC[C@H](C)[C@@H]1NC(=O)[C@]2(NC(=O)[C@H](CCC(N)=O)NC(=O)[C@@H]3CCCN3C(C)=O)CCN(C2)C(=O)OCC=CCCCC[C@@](C)(C(=O)N[C@@H](Cc2c[nH]cn2)C(=O)N[C@H](C(=O)N[C@@H](CCCNC(=N)N)C(=O)N[C@@H](CCCNC(=N)N)C(=O)N[C@H](C(=O)N[C@@H](Cc2c[nH]c3ccccc23)C(=O)N[C@@H](CCCNC(=N)N)C(N)=O)C(C)C)C(C)C)NC(=O)[C@H](CC(=O)O)NC(=O)[C@H](CC(C)C)NC1=O` (single isomer, unassigned) [FP0752c, Ac-P-Q-MB-I-L-D-S6-H-V-R-R-V-W-R-NH2], the EC50 was 500 to 5000 nM.

Regarding `CC[C@H](C)[C@@H]1NC(=O)[C@]2(NC(=O)[C@H](CCC(N)=O)NC(=O)[C@@H]3CCCN3C(C)=O)CCN(CC=CCCCCC[C@@](C)(C(=O)N[C@@H](Cc3c[nH]cn3)C(=O)N[C@H](C(=O)N[C@@H](CCCNC(=N)N)C(=O)N[C@@H](CCCNC(=N)N)C(=O)N[C@H](C(=O)N[C@@H](Cc3c[nH]c4ccccc34)C(=O)N[C@@H](CCCNC(=N)N)C(N)=O)C(C)C)C(C)C)NC(=O)[C@H](CC(=O)O)NC(=O)[C@H](CC(C)C)NC1=O)C2` (single isomer, unassigned) [FP0753a, Ac-P-Q-MB-I-L-D-S7-H-V-R-R-V-W-R-NH2], the EC50 was greater than 5000 nM.

`CC[C@H](C)[C@@H]1NC(=O)[C@](C)(NC(=O)[C@H](CCC(N)=O)NC(=O)[C@@H]2CCCN2C(C)=O)CCCC=CCN2CC[C@@](C(=O)N[C@@H](Cc3c[nH]cn3)C(=O)N[C@H](C(=O)N[C@@H](CCCNC(=N)N)C(=O)N[C@@H](CCCNC(=N)N)C(=O)N[C@H](C(=O)N[C@@H](Cc3c[nH]c4ccccc34)C(=O)N[C@@H](CCCNC(=N)N)C(N)=O)C(C)C)C(C)C)(C2)NC(=O)[C@H](CC(=O)O)NC(=O)[C@H](CC(C)C)NC1=O` (single isomer, unassigned) [FP0758a, Ac-P-Q-R5-I-L-D-MB-H-V-R-R-V-W-R-NH2]: the EC50 is greater than 5000 nM.

Turning to `CC[C@H](C)[C@@H]1NC(=O)[C@](C)(NC(=O)[C@H](CCC(N)=O)NC(=O)[C@@H]2CCCN2C(C)=O)CCCC=CCOC(=O)N2CC[C@@](C(=O)N[C@@H](Cc3c[nH]cn3)C(=O)N[C@H](C(=O)N[C@@H](CCCNC(=N)N)C(=O)N[C@@H](CCCNC(=N)N)C(=O)N[C@H](C(=O)N[C@@H](Cc3c[nH]c4ccccc34)C(=O)N[C@@H](CCCNC(=N)N)C(N)=O)C(C)C)C(C)C)(C2)NC(=O)[C@H](CC(=O)O)NC(=O)[C@H](CC(C)C)NC1=O` (single isomer, unassigned) [FP0758c, Ac-P-Q-R5-I-L-D-MB-H-V-R-R-V-W-R-NH2], the EC50 lay within 500 to 5000 nM.

As to `CC[C@H](C)[C@@H]1NC(=O)[C@@](C)(NC(=O)[C@H](CCC(N)=O)NC(=O)[C@@H]2CCCN2C(C)=O)CCCCC=CCOC(=O)N2CC[C@@](C(=O)N[C@@H](Cc3c[nH]cn3)C(=O)N[C@H](C(=O)N[C@@H](CCCNC(=N)N)C(=O)N[C@@H](CCCNC(=N)N)C(=O)N[C@H](C(=O)N[C@@H](Cc3c[nH]c4ccccc34)C(=O)N[C@@H](CCCNC(=N)N)C(N)=O)C(C)C)C(C)C)(C2)NC(=O)[C@H](CC(=O)O)NC(=O)[C@H](CC(C)C)NC1=O` (single isomer, unassigned) [FP0761c, Ac-P-Q-S6-I-L-D-MB-H-V-R-R-V-W-R-NH2], the EC50 lay within 100 to 500 nM.

As to `CC[C@H](C)[C@@H]1NC(=O)[C@@](C)(NC(=O)[C@H](CCC(N)=O)NC(=O)[C@@H]2CCCN2C(C)=O)CCCCCC=CCN2CC[C@@](C(=O)N[C@@H](Cc3c[nH]cn3)C(=O)N[C@H](C(=O)N[C@@H](CCCNC(=N)N)C(=O)N[C@@H](CCCNC(=N)N)C(=O)N[C@H](C(=O)N[C@@H](Cc3c[nH]c4ccccc34)C(=O)N[C@@H](CCCNC(=N)N)C(N)=O)C(C)C)C(C)C)(C2)NC(=O)[C@H](CC(=O)O)NC(=O)[C@H](CC(C)C)NC1=O` (single isomer, unassigned) [FP0763a, Ac-P-Q-S7-I-L-D-MB-H-V-R-R-V-W-R-NH2], the EC50 was in the range of 500 to 5000 nM.

For the compound `CC[C@H](C)[C@@H]1NC(=O)[C@@](C)(NC(=O)[C@H](CCC(N)=O)NC(=O)[C@@H]2CCCN2C(C)=O)CCCCCC=CCOC(=O)N2CC[C@@](C(=O)N[C@@H](Cc3c[nH]cn3)C(=O)N[C@H](C(=O)N[C@@H](CCCNC(=N)N)C(=O)N[C@@H](CCCNC(=N)N)C(=O)N[C@H](C(=O)N[C@@H](Cc3c[nH]c4ccccc34)C(=O)N[C@@H](CCCNC(=N)N)C(N)=O)C(C)C)C(C)C)(C2)NC(=O)[C@H](CC(=O)O)NC(=O)[C@H](CC(C)C)NC1=O` (single isomer, unassigned) [FP0763c, Ac-P-Q-S7-I-L-D-MB-H-V-R-R-V-W-R-NH2], the EC50 was 100 to 500 nM.

As for `CC[C@H](C)[C@@H]1NC(=O)[C@](C)(NC(=O)[C@H](CCC(N)=O)NC(=O)[C@@H]2CCCN2C(C)=O)CCCCC=CCN2CC[C@](C(=O)N[C@@H](Cc3c[nH]cn3)C(=O)N[C@H](C(=O)N[C@@H](CCCNC(=N)N)C(=O)N[C@@H](CCCNC(=N)N)C(=O)N[C@H](C(=O)N[C@@H](Cc3c[nH]c4ccccc34)C(=O)N[C@@H](CCCNC(=N)N)C(N)=O)C(C)C)C(C)C)(C2)NC(=O)[C@H](CC(=O)O)NC(=O)[C@H](CC(C)C)NC1=O` (single isomer, unassigned) [FP0767a, Ac-P-Q-R6-I-L-D-MC-H-V-R-R-V-W-R-NH2], the concentration for a half-maximal effect (EC50) was 500 to 5000 nM.

As for `CC[C@H](C)[C@@H]1NC(=O)[C@](C)(NC(=O)[C@H](CCC(N)=O)NC(=O)[C@@H]2CCCN2C(C)=O)CCCCC=CCOC(=O)N2CC[C@](C(=O)N[C@@H](Cc3c[nH]cn3)C(=O)N[C@H](C(=O)N[C@@H](CCCNC(=N)N)C(=O)N[C@@H](CCCNC(=N)N)C(=O)N[C@H](C(=O)N[C@@H](Cc3c[nH]c4ccccc34)C(=O)N[C@@H](CCCNC(=N)N)C(N)=O)C(C)C)C(C)C)(C2)NC(=O)[C@H](CC(=O)O)NC(=O)[C@H](CC(C)C)NC1=O` (single isomer, unassigned) [FP0767c, Ac-P-Q-R6-I-L-D-MC-H-V-R-R-V-W-R-NH2], the EC50 was in the range of 100 to 500 nM.

Regarding `CC[C@H](C)[C@@H]1NC(=O)[C@](C)(NC(=O)[C@H](CCC(N)=O)NC(=O)[C@@H]2CCCN2C(C)=O)CCCCCC=CCN2CC[C@](C(=O)N[C@@H](Cc3c[nH]cn3)C(=O)N[C@H](C(=O)N[C@@H](CCCNC(=N)N)C(=O)N[C@@H](CCCNC(=N)N)C(=O)N[C@H](C(=O)N[C@@H](Cc3c[nH]c4ccccc34)C(=O)N[C@@H](CCCNC(=N)N)C(N)=O)C(C)C)C(C)C)(C2)NC(=O)[C@H](CC(=O)O)NC(=O)[C@H](CC(C)C)NC1=O` (single isomer, unassigned) [FP0768a, Ac-P-Q-R7-I-L-D-MC-H-V-R-R-V-W-R-NH2], the EC50 was greater than 5000 nM.
